Source: publication PMC7961380, “A Systematic Study of the In Vitro Pharmacokinetics and Estimated Human In Vivo Clearance of Indole and Indazole-3-Carboxamide Synthetic Cannabinoid Receptor Agonists Detected on the Illicit Drug Market” (Molecules, 2021)

Columns and labels:
[1] = tested on: human hepatocytes (HHeps); settings: HHeps (asterisk); ref 13 (JWH-122, MAM-2201, Cl-, Br-, I-JWH-122), 105 (AM1220); cited from earlier work
[2] = cited from earlier work
in vitro = settings: human, plasma, pH 7.4
Procedure: The pooled plasma used for both plasma stability and plasma binding studies originated from 50 donors, collected as whole blood from donors in the United States at an FDA-approved collection center, processed into plasma by centrifugation and immediately frozen (Innovative Research; Novi, MI, USA) and purchased from Patricell (Nottingham, UK). […] Stock solutions were prepared in DMSO. […] For incubations without inhibitor an equivalent volume of DMSO was included. Plasma mixture was pre-incubated at 37 °C for 5 min. Test compounds (5 µM) and procaine (positive control, 50 µM) were added to pre-warmed plasma mixture containing inhibitors. Incubation volume was 1 mL. Samples were mixed and 80 µL was immediately sampled and quenched into 200 µL ACN spiked with donepezil (internal standard (IS), 50 ng mL^−1). […] Peak area ratio of analyte to IS was used to determine half-lives of test compounds in plasma, both with and without the presence of esterase inhibitors.
The human plasma used was pooled from 50 donors, and was collected as whole blood from donors in
the United States at an FDA-approved collection center, processed into plasma by centrifugation and
The stability of the tested SCRAs, select metabolites and procaine control in pooled human plasma over
inhibitors bis(4-nitrophenyl) phosphate (BNPP) and phenyl methyl sulphonyl fluoride (PMSF) is

[3] = Metabolic stability, pooled human liver microsome incubations; settings: pHLM; vs refs 69 (AB-FUBINACA), 54 (5F-MDMB-PINACA)
[4] = HLM, ref 14 (THJ-018, THJ-2201), 15 (NNEI, MN-18), 106 (NM-2201), 107 (BIM-2201), 108 (STS-135), 16 (AB-PINACA, 5F-AB-PINACA), 54 (5F-MDMB-PINACA), 69 (AB-FUBINACA), 17 (ADB-FUBINACA), 97 (FDU-PB-22, FUB-PB-22), cited from earlier work; for CLint micr / t1/2: 95 (Cumyl-PICA, 5F-Cumyl-PICA), 109 (5F-APP-PICA, 5F-APP-PINACA; for CLint micr: 73 (5F-AMB-PINACA); for t1/2 / CLint: 57 (AMB-4en-PICA); for t1/2: 73 (AMB-PINACA, 5F-AMB-PINACA)
[5] = Chromatographic hydrophobicity index (CHI) log D at pH 7.4; settings: reversed-phase HPLC, Acquity BEH C18 column
Procedure: Chromatographic hydrophobicity index (CHI) log D samples (see below) were analysed using high-performance liquid chromatography (HPLC) with a Shimadzu Nexera X2 HPLC coupled to a Shimadzu SPD-30 MA photodiode array detector (PDA) (Shimadzu, Kyoto, Japan). […] The sample chamber was maintained at 25 °C. Gradient elution was performed, with mobile phase (MP) consisting of ammonium acetate in water (10 mM, pH 7.4) (MP A) and acetonitrile (MP B).
A calibration mix of ten compounds at 10 µg mL^−1 in 1:1 (v/v) water:ACN was used (theophylline, phenyltetrazole, benzimidazole, colchicine, phenyltheophilline, acetophenone, indole, propiophenone, butyrophenone and valerophenone (all Sigma-Aldrich)). Test compounds were prepared at 0.25 mM in 1:1 (v/v) water:ACN. Samples (n = 2 for calibration standards; n = 1 for test compounds) were analysed using UPLC-PDA as described above. Retention times of calibration compounds are used to calculate retention factor (k), which is plotted against literature CHI values for each compound.
Where tr is the retention time of the analyte and t0 is the retention time of an unretained compound
Calculation of chromatographic hydrophobicity index (CHI)
CHI = (𝑘 x slope) − intercept Eqn.4
Where k is the retention factor of the analyte.
Calculation of CHI Log D [1]
Where CHI is the chromatographic hydrophobicity index obtained using Equation 4

[6] = Theoretical fraction unbound for hepatocytes (fuhep) from log D7.4; parameters: species or system human; settings: calculated from experimental log D7.4 as Kilford et al. (2008), cell volume 3.9 µL/million cells
Source text: For all MDMB- compounds, and for most (S)-AMB-compounds differences in CLint were within 2.5-fold. […] There are multiple factors which can cause intrinsic clearance by HHeps to differ from HLM [89]. Differences may reflect the relative efficiency of transport of SCRAs and their enantiomers through cell membranes in HHeps and the relative abundance of particular enzymes in HLM and HHeps, targeting different sites of metabolism, particularly carboxylesterases. A dominance of non-CYP enzymes in metabolic clearance can result in CLint being faster in HHeps. […] Glucuronidation is therefore unlikely to cause the differences in clearance rates observed. […] CES-1 is one of the most abundant enzymes in human hepatocytes, present in the endoplasmic reticulum and to a lesser extent in the cytosol. Non-specific binding of drugs to microsomes and hepatocytes results in a lower unbound fraction available to interact with enzymes; differences in binding between HLM and HHep incubations may therefore also cause clearance differences. Non-specific binding may be estimated from log P data. Theoretical fraction unbound for microsomes (fumic) and hepatocytes (fuhep) was calculated using experimental pHLM and pHHep concentrations and incubation volumes, and experimental log D7.4 values, as described by Kilford et al. (2008) with hepatocyte cell volume as 3.9 µL/million cells. […]

[7] = parameters: method as in PMID 17712819; settings: cited from earlier work

SMILES: Cc1ccc(C(=O)c2cn(CCCCCBr)c3ccccc23)c2ccccc12 [Br-JWH-122]
- CLint [1]: 497 mL/min/kg
- t1/2 [1]: 2.49 min

SMILES: CCCCCn1cc(C(=O)c2ccc(C)c3ccccc23)c2ccccc21 [JWH-122, (4-methyl-1-naphthyl)-(1-pentylindol-3-yl)methanone]
- CLint [1]: 1350 mL/min/kg
- t1/2 [1]: 0.95 min

SMILES: CCCCCn1cc(C(=O)c2ccc(CC)c3ccccc23)c2ccccc21 [JWH-210, 4-ethylnaphthalen-1-yl-(1-pentylindol-3-yl)methanone]
- log P [2]: 7.5

SMILES: CN1CCCCC1Cn1cc(C(=O)c2cccc3ccccc23)c2ccccc21 (centres unmarked) [AM1220]
- CLint [1]: 169 mL/min/kg
- t1/2 [1]: 3.7 min

SMILES: Cc1ccc(C(=O)c2cn(CCCCCI)c3ccccc23)c2ccccc12 [I-JWH-122, (1-(5-iodopentyl)-1H-indol-3-yl)(4-methylnaphthalen-1-yl)methanone]
- CLint [1]: 235 mL/min/kg
- t1/2 [1]: 5.26 min

SMILES: Cc1ccc(C(=O)c2cn(CCCCCCl)c3ccccc23)c2ccccc12 [Cl-JWH-122]
- CLint [1]: 502 mL/min/kg
- t1/2 [1]: 2.46 min

SMILES: CCN(CC)CCOC(=O)c1ccc(N)cc1 [Procaine]
- half-life (in vitro): 6.5 min
- remaining at 3 h (in vitro): 0.03 ± 0.02%
- remaining at 5 h (in vitro): 0.08%

SMILES: CC(C)C(NC(=O)c1nn(Cc2ccc(F)cc2)c2ccccc12)C(N)=O (centres unmarked) [AB-FUBINACA (8), N-(1-amino-3-methyl-1-oxobutan-2-yl)-1-(4-fluorobenzyl)-1H-indazole-3-carboxamide]
- CLH prediction lower than literature prediction without PPB [3]: 20 fold
- EH prediction lower than literature prediction without PPB [3]: 17 fold
- CLint micr [4]: 11 µL/min/mg
- t1/2 [4]: 62.6 min
- CLint [4]: 10.5 mL/min/kg
- chromatographic logD [5]: 2.81

SMILES: C=CCCCn1nc(C(=O)NC(C(=O)OC)C(C)(C)C)c2ccccc21 (centres unmarked) [MDMB-4en-PINACA (5), methyl 3,3-dimethyl-2-[1-(pent-4-en-1-yl)-1H-indazole-3-carboxamido] butanoate]
- estimated fuhep (theoretical fraction unbound for hepatocytes) [6]: 0.47
- chromatographic logD [5]: 4.95

SMILES: Cc1ccc(C(=O)c2cn(CCCCCF)c3ccccc23)c2ccccc12 [MAM-2201]
- CLint [1]: 1408 mL/min/kg
- t1/2 [1]: 0.88 min

SMILES: COC(=O)C(NC(=O)c1nn(CCCCCF)c2ccccc12)C(C)(C)C (centres unmarked) [5F-MDMB-PINACA (2), methyl 2-[1-(5-fluoropentyl)-1H-indazole-3-carboxamido]-3,3-dimethylbutanoate]
- CLH prediction lower than literature prediction without PPB [3]: 4 fold
- EH prediction lower than literature prediction without PPB [3]: 4 fold
- CLint micr [4]: 271 µL/min/mg
- t1/2 [4]: 3.1 min
- CLint [4]: 256.2 mL/min/kg
- chromatographic logD [5]: 4.5

SMILES: CCCCCc1cc(O)c2c(c1)OC(C)(C)[C@@H]1CCC(C)=C[C@@H]21 [THC, Δ9-tetrahydrocannabinol]
- log P [2]: 6.7
- protein-bound in plasma [7]: 95–99%
